{"source": "patent US11304918B2", "about": "“Methods and compositions for the treatment of diverticulosis” (Emmaus Medical, Inc., priority 2011, dated 2022)", "test_system": "diverticula", "assay": "Number of diverticula observed by colonoscopy in a person with diverticulosis ingesting L-glutamine", "format": "in vivo", "details": "one person, 30 g of L-glutamine per day as an aqueous solution, ingested, after twelve months", "description": "Compositions according to the present invention may be used to treat diverticulosis as determined by a number of different methods to image colon pouches. Nonlimiting examples of imaging methods include: colonoscopy; computed tomography; and, x-ray based on a barium enema. […] The person ingested 30 g of L-glutamine per day as an aqueous solution. After twelve months of L-glutamine administration, the number of diverticula had been reduced by ninety (90) percent.", "data": [{"smiles": "NC(=O)CC[C@H](N)C(=O)O", "note": "[L-glutamine]", "values": [{"measurement": "reduction of the number of diverticula", "result": 90, "unit": "%"}]}]}
